Assay results published in the NIST ThermoML archive (doi:10.1021/acs.jced.8b01135).

Assay: xn = mol fraction of the nth substance listed
Details: 102 kPa, Liquid; for speed of sound: Frequency=3 MHz, Single path-length method; for mass density: Vibrating tube method; for viscosity: Concentric cylinders viscometry

CCCC1CCCCC1 [1-cyclohexylpropane] + CCCCCCCCCCCC
Details | mass density [kg/m3] | speed of sound [m/s] | viscosity [mPa·s]
288.15 K, x1 = 0.1007 | 755.55 | 1317.5 | –
288.15 K, x1 = 0.2001 | 758.92 | 1317.8 | –
288.15 K, x1 = 0.3001 | 762.54 | 1318.2 | –
288.15 K, x1 = 0.4011 | 766.49 | 1319.3 | –
288.15 K, x1 = 0.5 | 770.63 | 1320.1 | –
288.15 K, x1 = 0.6004 | 775.15 | 1320.9 | –
288.15 K, x1 = 0.6995 | 780 | 1322.1 | –
288.15 K, x1 = 0.7998 | 785.31 | 1323.8 | –
288.15 K, x1 = 0.8997 | 791.13 | 1326.1 | –
288.15 K, x1 = 1 | 797.42 | 1328.6 | –
293.15 K, x1 = 0.1007 | 751.91 | 1297.9 | 1.44
293.15 K, x1 = 0.2001 | 755.26 | 1298.2 | 1.39
293.15 K, x1 = 0.3001 | 758.87 | 1298.6 | 1.34
293.15 K, x1 = 0.4011 | 762.8 | 1299.8 | 1.28
293.15 K, x1 = 0.5 | 766.92 | 1300.2 | 1.23
293.15 K, x1 = 0.6004 | 771.42 | 1300.8 | 1.18
293.15 K, x1 = 0.6995 | 776.23 | 1301.9 | 1.13
293.15 K, x1 = 0.7998 | 781.51 | 1303.4 | 1.08
293.15 K, x1 = 0.8997 | 787.31 | 1305.3 | 1.03
293.15 K, x1 = 1 | 793.53 | 1307.7 | 0.981
298.15 K, x1 = 0.1007 | 748.27 | 1278.4 | –
298.15 K, x1 = 0.2001 | 751.61 | 1278.6 | –
298.15 K, x1 = 0.3001 | 755.2 | 1279 | –
298.15 K, x1 = 0.4011 | 759.11 | 1280.3 | –
298.15 K, x1 = 0.5 | 763.2 | 1280.8 | –
298.15 K, x1 = 0.6004 | 767.68 | 1280.8 | –
298.15 K, x1 = 0.6995 | 772.46 | 1281.8 | –
298.15 K, x1 = 0.7998 | 777.71 | 1283.1 | –
298.15 K, x1 = 0.8997 | 783.46 | 1284.7 | –
298.15 K, x1 = 1 | 789.63 | 1287.1 | –
303.15 K, x1 = 0.1007 | 744.62 | 1259.1 | 1.23
303.15 K, x1 = 0.2001 | 747.95 | 1259.2 | 1.18
303.15 K, x1 = 0.3001 | 751.53 | 1259.5 | 1.14
303.15 K, x1 = 0.4011 | 755.41 | 1260.9 | 1.1
303.15 K, x1 = 0.5 | 759.48 | 1261.1 | 1.06
303.15 K, x1 = 0.6004 | 763.93 | 1261 | 1.02
303.15 K, x1 = 0.6995 | 768.68 | 1261.8 | 0.977
303.15 K, x1 = 0.7998 | 773.89 | 1262.9 | 0.936
303.15 K, x1 = 0.8997 | 779.6 | 1264.3 | 0.897
303.15 K, x1 = 1 | 785.72 | 1266.6 | 0.856
313.15 K, x1 = 0.1007 | 737.32 | 1221.1 | 1.05
313.15 K, x1 = 0.2001 | 740.61 | 1221.1 | 1.01
313.15 K, x1 = 0.3001 | 744.15 | 1221.3 | 0.979
313.15 K, x1 = 0.4011 | 747.98 | 1222.3 | 0.946
313.15 K, x1 = 0.5 | 752.01 | 1222.6 | 0.914
313.15 K, x1 = 0.6004 | 756.42 | 1222.1 | 0.882
313.15 K, x1 = 0.6995 | 761.11 | 1222.6 | 0.85
313.15 K, x1 = 0.7998 | 766.24 | 1223.3 | 0.818
313.15 K, x1 = 0.8997 | 771.86 | 1224.3 | 0.783
313.15 K, x1 = 1 | 777.88 | 1226.2 | 0.75
323.15 K, x1 = 0.1007 | 729.98 | 1183.9 | 0.909
323.15 K, x1 = 0.2001 | 733.24 | 1183.7 | 0.882
323.15 K, x1 = 0.3001 | 736.75 | 1183.8 | 0.856
323.15 K, x1 = 0.4011 | 740.52 | 1184.5 | 0.831
323.15 K, x1 = 0.5 | 744.5 | 1184.6 | 0.802
323.15 K, x1 = 0.6004 | 748.86 | 1183.9 | 0.776
323.15 K, x1 = 0.6995 | 753.49 | 1184.1 | 0.75
323.15 K, x1 = 0.7998 | 758.55 | 1184.6 | 0.721
323.15 K, x1 = 0.8997 | 764.09 | 1185.1 | 0.694
323.15 K, x1 = 1 | 770 | 1186.5 | 0.668
333.15 K, x1 = 0.1007 | 722.61 | 1147.6 | 0.792
333.15 K, x1 = 0.2001 | 725.82 | 1147.3 | 0.769
333.15 K, x1 = 0.3001 | 729.3 | 1147.3 | 0.75
333.15 K, x1 = 0.4011 | 733.02 | 1147.5 | 0.729
333.15 K, x1 = 0.5 | 736.95 | 1147.3 | 0.707
333.15 K, x1 = 0.6004 | 741.26 | 1146.7 | 0.685
333.15 K, x1 = 0.6995 | 745.82 | 1146.7 | 0.663
333.15 K, x1 = 0.7998 | 750.81 | 1146.8 | 0.64
333.15 K, x1 = 0.8997 | 756.27 | 1146.9 | 0.618
333.15 K, x1 = 1 | 762.09 | 1147.7 | 0.594
